Measurements as given in BigSolDB 2.1.

SMILES: CC(C)c1ncc[nH]1
- solubility (mole fraction) (in 2-butanone, 278.15 K): 0.11
- solubility (mole fraction) (in 2-butanone, 280.65 K): 0.116
- solubility (mole fraction) (in 2-butanone, 283.15 K): 0.121
- solubility (mole fraction) (in 2-butanone, 285.65 K): 0.127
- solubility (mole fraction) (in 2-butanone, 288.15 K): 0.133
- solubility (mole fraction) (in 2-butanone, 290.65 K): 0.139
- solubility (mole fraction) (in 2-butanone, 293.15 K): 0.145
- solubility (mole fraction) (in 2-butanone, 295.65 K): 0.152
- solubility (mole fraction) (in 2-butanone, 298.15 K): 0.159
- solubility (mole fraction) (in 2-butanone, 300.65 K): 0.167
- solubility (mole fraction) (in 2-butanone, 303.15 K): 0.177
- solubility (mole fraction) (in 2-butanone, 305.65 K): 0.185
- solubility (mole fraction) (in 2-butanone, 308.15 K): 0.194
- solubility (mole fraction) (in 2-butanone, 310.65 K): 0.203
- solubility (mole fraction) (in 2-butanone, 313.15 K): 0.213
- solubility (mole fraction) (in acetone, 278.15 K): 0.0906
- solubility (mole fraction) (in acetone, 280.65 K): 0.0946
- solubility (mole fraction) (in acetone, 283.15 K): 0.0988
- solubility (mole fraction) (in acetone, 285.65 K): 0.103
- solubility (mole fraction) (in acetone, 288.15 K): 0.108
- solubility (mole fraction) (in acetone, 290.65 K): 0.111
- solubility (mole fraction) (in acetone, 293.15 K): 0.116
- solubility (mole fraction) (in acetone, 295.65 K): 0.121
- solubility (mole fraction) (in acetone, 298.15 K): 0.127
- solubility (mole fraction) (in acetone, 300.65 K): 0.133
- solubility (mole fraction) (in acetone, 303.15 K): 0.14
- solubility (mole fraction) (in acetone, 305.65 K): 0.146
- solubility (mole fraction) (in acetone, 308.15 K): 0.153
- solubility (mole fraction) (in acetone, 310.65 K): 0.159
- solubility (mole fraction) (in acetone, 313.15 K): 0.166
- solubility (mole fraction) (in acetonitrile, 278.15 K): 0.0259
- solubility (mole fraction) (in acetonitrile, 280.65 K): 0.0275
- solubility (mole fraction) (in acetonitrile, 283.15 K): 0.0291
- solubility (mole fraction) (in acetonitrile, 285.65 K): 0.0308
- solubility (mole fraction) (in acetonitrile, 288.15 K): 0.0325
- solubility (mole fraction) (in acetonitrile, 290.65 K): 0.0343
- solubility (mole fraction) (in acetonitrile, 293.15 K): 0.0361
- solubility (mole fraction) (in acetonitrile, 295.65 K): 0.0379
- solubility (mole fraction) (in acetonitrile, 298.15 K): 0.0401
- solubility (mole fraction) (in acetonitrile, 300.65 K): 0.0427
- solubility (mole fraction) (in acetonitrile, 303.15 K): 0.0453
- solubility (mole fraction) (in acetonitrile, 305.65 K): 0.0481
- solubility (mole fraction) (in acetonitrile, 308.15 K): 0.0509
- solubility (mole fraction) (in acetonitrile, 310.65 K): 0.0538
- solubility (mole fraction) (in acetonitrile, 313.15 K): 0.0568
- solubility (mole fraction) (in ethanol, 278.15 K): 0.189
- solubility (mole fraction) (in ethanol, 280.65 K): 0.196
- solubility (mole fraction) (in ethanol, 283.15 K): 0.203
- solubility (mole fraction) (in ethanol, 285.65 K): 0.21
- solubility (mole fraction) (in ethanol, 288.15 K): 0.216
- solubility (mole fraction) (in ethanol, 290.65 K): 0.226
- solubility (mole fraction) (in ethanol, 293.15 K): 0.235
- solubility (mole fraction) (in ethanol, 295.65 K): 0.243
- solubility (mole fraction) (in ethanol, 298.15 K): 0.253
- solubility (mole fraction) (in ethanol, 300.65 K): 0.263
- solubility (mole fraction) (in ethanol, 303.15 K): 0.273
- solubility (mole fraction) (in ethanol, 305.65 K): 0.282
- solubility (mole fraction) (in ethanol, 308.15 K): 0.294
- solubility (mole fraction) (in ethanol, 310.65 K): 0.304
- solubility (mole fraction) (in ethanol, 313.15 K): 0.315
- solubility (mole fraction) (in ethyl acetate, 278.15 K): 0.0519
- solubility (mole fraction) (in ethyl acetate, 280.65 K): 0.0556
- solubility (mole fraction) (in ethyl acetate, 283.15 K): 0.0588
- solubility (mole fraction) (in ethyl acetate, 285.65 K): 0.0626
- solubility (mole fraction) (in ethyl acetate, 288.15 K): 0.066
- solubility (mole fraction) (in ethyl acetate, 290.65 K): 0.0697
- solubility (mole fraction) (in ethyl acetate, 293.15 K): 0.0737
- solubility (mole fraction) (in ethyl acetate, 295.65 K): 0.0778
- solubility (mole fraction) (in ethyl acetate, 298.15 K): 0.0826
- solubility (mole fraction) (in ethyl acetate, 300.65 K): 0.0883
- solubility (mole fraction) (in ethyl acetate, 303.15 K): 0.0939
- solubility (mole fraction) (in ethyl acetate, 305.65 K): 0.0994
- solubility (mole fraction) (in ethyl acetate, 308.15 K): 0.105
- solubility (mole fraction) (in ethyl acetate, 310.65 K): 0.112
- solubility (mole fraction) (in ethyl acetate, 313.15 K): 0.118
- solubility (mole fraction) (in isopropanol, 278.15 K): 0.0738
- solubility (mole fraction) (in isopropanol, 280.65 K): 0.0768
- solubility (mole fraction) (in isopropanol, 283.15 K): 0.0801
- solubility (mole fraction) (in isopropanol, 285.65 K): 0.0825
- solubility (mole fraction) (in isopropanol, 288.15 K): 0.0856
- solubility (mole fraction) (in isopropanol, 290.65 K): 0.0883
- solubility (mole fraction) (in isopropanol, 293.15 K): 0.0927
- solubility (mole fraction) (in isopropanol, 295.65 K): 0.0965
- solubility (mole fraction) (in isopropanol, 298.15 K): 0.101
- solubility (mole fraction) (in isopropanol, 300.65 K): 0.105
- solubility (mole fraction) (in isopropanol, 303.15 K): 0.11
- solubility (mole fraction) (in isopropanol, 305.65 K): 0.115
- solubility (mole fraction) (in isopropanol, 308.15 K): 0.121
- solubility (mole fraction) (in isopropanol, 310.65 K): 0.126
- solubility (mole fraction) (in isopropanol, 313.15 K): 0.132
- solubility (mole fraction) (in methanol, 278.15 K): 0.224
- solubility (mole fraction) (in methanol, 280.65 K): 0.233
- solubility (mole fraction) (in methanol, 283.15 K): 0.242
- solubility (mole fraction) (in methanol, 285.65 K): 0.252
- solubility (mole fraction) (in methanol, 288.15 K): 0.263
- solubility (mole fraction) (in methanol, 290.65 K): 0.274
- solubility (mole fraction) (in methanol, 293.15 K): 0.285
- solubility (mole fraction) (in methanol, 295.65 K): 0.297
- solubility (mole fraction) (in methanol, 298.15 K): 0.31
- solubility (mole fraction) (in methanol, 300.65 K): 0.322
- solubility (mole fraction) (in methanol, 303.15 K): 0.334
- solubility (mole fraction) (in methanol, 305.65 K): 0.348
- solubility (mole fraction) (in methanol, 308.15 K): 0.361
- solubility (mole fraction) (in methanol, 310.65 K): 0.376
- solubility (mole fraction) (in methanol, 313.15 K): 0.39
- solubility (mole fraction) (in n-propanol, 278.15 K): 0.0999
- solubility (mole fraction) (in n-propanol, 280.65 K): 0.104
- solubility (mole fraction) (in n-propanol, 283.15 K): 0.109
- solubility (mole fraction) (in n-propanol, 285.65 K): 0.114
- solubility (mole fraction) (in n-propanol, 288.15 K): 0.117
- solubility (mole fraction) (in n-propanol, 290.65 K): 0.121
- solubility (mole fraction) (in n-propanol, 293.15 K): 0.126
- solubility (mole fraction) (in n-propanol, 295.65 K): 0.133
- solubility (mole fraction) (in n-propanol, 298.15 K): 0.139
- solubility (mole fraction) (in n-propanol, 300.65 K): 0.146
- solubility (mole fraction) (in n-propanol, 303.15 K): 0.153
- solubility (mole fraction) (in n-propanol, 305.65 K): 0.159
- solubility (mole fraction) (in n-propanol, 308.15 K): 0.166
- solubility (mole fraction) (in n-propanol, 310.65 K): 0.173
- solubility (mole fraction) (in n-propanol, 313.15 K): 0.18
- solubility (mole fraction) (in toluene, 278.15 K): 0.0215
- solubility (mole fraction) (in toluene, 280.65 K): 0.0225
- solubility (mole fraction) (in toluene, 283.15 K): 0.0237
- solubility (mole fraction) (in toluene, 285.65 K): 0.0248
- solubility (mole fraction) (in toluene, 288.15 K): 0.026
- solubility (mole fraction) (in toluene, 290.65 K): 0.0272
- solubility (mole fraction) (in toluene, 293.15 K): 0.0287
- solubility (mole fraction) (in toluene, 295.65 K): 0.0302
- solubility (mole fraction) (in toluene, 298.15 K): 0.0318
- solubility (mole fraction) (in toluene, 300.65 K): 0.0336
- solubility (mole fraction) (in toluene, 303.15 K): 0.0355
- solubility (mole fraction) (in toluene, 305.65 K): 0.0374
- solubility (mole fraction) (in toluene, 308.15 K): 0.0394
- solubility (mole fraction) (in toluene, 310.65 K): 0.0416
- solubility (mole fraction) (in toluene, 313.15 K): 0.0437
